The experiment has as its target human recombinant GPR65 (Homo sapiens, UniProt Q8IYL9). As to the kind of experiment: Human GPR65 cAMP HTRF antagonist assay. Format: cell-based. To be noted: 1321N1 cells stably expressing human recombinant GPR65, assay pH 7.2, read-out: hGPR65 IC50. As to the method:
Human GPR65 Cyclic Adenosine Monophosphate (cAMP) Homogeneous Time Resolved Fluorescence (HTRF) Antagonist Assay Procedure
IC50 data was obtained by the following procedure:
1321N1 human astrocytoma cells stably expressing human recombinant GPR65 (1321N1-hrGPR65 cells, EuroscreenFast) were cultured according to the vendor's instructions.
Compounds were tested for their ability to antagonise GPR65, through measuring the concentration of cytoplasmic cAMP following treatment of the cells at a pH of 7.2 to activate GPR65 signalling and addition of the compound to be tested. The extent to which the expected rise in cAMP concentration upon GPR65 activation was suppressed by the added compound is indicative of its potency. The assay was carried out according to EuroscreenFast assay Methodology as follows.
On the day of the assay, test compounds were added to 384-well, low volume, white microtiter plates by acoustic dispensing. KRH buffer (5 mM KCl, 1.25 mM MgSO4, 124 mM NaCl, 25 mM HEPES, 13.3 mM Glucose, 1.25 mM KH2PO4 and 1.45 mM CaCl2) was adjusted to pH 6.5, pH 7.6 and pH 8.4 by adding NaOH. 1321N1-hGPR65 cells were rapidly thawed and diluted in KRH, pH 7.6 prior to centrifugation at 300×g for 5 min and resuspension in assay buffer (KRH, pH 7.6, supplemented with 1 mM 3-isobutyl-1-methylxanthine (IBMX) and 200 μM ethylenediaminetetraacetic acid (EDTA)). Cells were added to assay plates at a density of 2,000 cells per well in a volume of 5 μl. Assay plates were briefly centrifuged at 100×g and then incubated at room temperature for 30 min. Cells were stimulated by the addition of 5 μL KRH, pH 6.5, to achieve an assay pH of 7.2, while control wells received 5 μl KRH, pH 8.4 to achieve an assay pH of 7.9. Assay plates were briefly centrifuged at 100×g and then incubated at room temperature for 30 min.
Accumulation of cAMP was detected by cAMP HTRF kit (Cisbio). d2-labeled cAMP and cryptate-labeled anti-cAMP antibody in Lysis and Detection Buffer (Cisbio) were added to assay plates, and the plates were incubated at room temperature for 1 h. HTRF measurements were performed using a Pherastar FSX instrument. Acceptor and donor emission signals were measured at 665 nm and 620 nm, respectively, and HTRF ratios were calculated as signal665 nm/signal620nm×10^4. Data were normalised to high and low control values and fitted with 4-parameter logistic regression to determine hGPR65 IC50 values for the test compounds, which are shown in Table 1.
A general note: In TR-FRET formats the signal depends on donor and acceptor labels being close together.

As a reminder, the IC50 is the concentration that inhibits the measured activity by half.

Chain of human recombinant GPR65 (Q8IYL9 whole entry): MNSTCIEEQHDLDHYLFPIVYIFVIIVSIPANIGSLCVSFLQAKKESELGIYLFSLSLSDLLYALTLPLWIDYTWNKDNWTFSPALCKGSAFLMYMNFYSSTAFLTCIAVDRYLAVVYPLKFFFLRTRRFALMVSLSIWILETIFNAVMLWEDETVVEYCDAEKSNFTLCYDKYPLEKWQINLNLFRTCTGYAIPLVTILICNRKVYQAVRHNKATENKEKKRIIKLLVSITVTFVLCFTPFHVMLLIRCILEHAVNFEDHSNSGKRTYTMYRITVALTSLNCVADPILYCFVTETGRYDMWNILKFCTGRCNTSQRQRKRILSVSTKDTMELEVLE

In the case of `C[C@@H]1CN(C(=O)Nc2cc(Cl)c(C(F)(F)F)cc2F)Cc2ccnc(F)c21` (single isomer, unassigned; isomer 1) [Compound 28, N-(5-chloro-2-fluoro-4-(trifluoromethyl)phenyl)-5-fluoro-4-methyl-3,4-dihydro-2,6-naphthyridine-2(1H)-carboxamide isomer 1], the 50% inhibitory concentration (IC50) was below 500 nM.

Values taken from US20250304574A1, “3,4,6,7-TETRAHYDRO-2,7-NAPHTHYRIDINE-2(1H)-CARBOXAMIDE DERIVATIVES AS GPR65 INHIBITORS FOR THE TREATMENT OF CANCER AND AUTOIMMUNE DISEASES” (Pathios Therapeutics Limited, priority 2022, published 2025).
